# Assay results published in patent US6979686B1, “Substituted pyrazoles as p38 kinase inhibitors” (Pharmacia Corporation, priority 2001, dated 2005).
# Target: T1, human p38 kinase alpha (Homo sapiens, UniProt Q16539)
# T1 construct: GST (N, cleaved yes); made in house; host or cells: E. coli DH10B
# Assay: p38 kinase in vitro assay, phosphorylation of biotinylated PHAS-I with 32P-ATP
# Assay type: biochemical
# Conditions: in vitro P38-alpha kinase; read-out: P38 alpha kinase IC50
# T1 sequence (Q16539 whole entry): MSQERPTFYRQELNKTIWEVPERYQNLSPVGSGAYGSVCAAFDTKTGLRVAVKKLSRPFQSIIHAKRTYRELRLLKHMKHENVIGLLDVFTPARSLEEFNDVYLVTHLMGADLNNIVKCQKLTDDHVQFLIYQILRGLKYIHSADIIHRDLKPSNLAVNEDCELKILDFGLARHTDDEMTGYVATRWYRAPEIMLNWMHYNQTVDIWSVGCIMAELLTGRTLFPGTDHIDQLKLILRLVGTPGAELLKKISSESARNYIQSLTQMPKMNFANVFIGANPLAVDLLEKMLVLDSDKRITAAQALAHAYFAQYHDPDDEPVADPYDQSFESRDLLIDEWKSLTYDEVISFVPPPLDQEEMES
row,SMILES,IC50 [nM]
1,CCCCOc1ccc(S(=O)(=O)NCCCc2[nH]nc(-c3ccc(F)cc3)c2-c2ccncc2)cc1 [Example B-1261],740
2,COc1ccc(OC)c(S(=O)(=O)NCCCc2[nH]nc(-c3ccc(F)cc3)c2-c2ccncc2)c1 [Example B-1262],< 100
3,O=S(=O)(NCCCc1[nH]nc(-c2ccc(F)cc2)c1-c1ccncc1)c1ccccc1C(F)(F)F [Example B-1263],1050
4,O=S(=O)(NCCCc1[nH]nc(-c2ccc(F)cc2)c1-c1ccncc1)c1ccc(C(F)(F)F)cc1 [Example B-1264],320
5,CCc1ccc(S(=O)(=O)NCCCc2[nH]nc(-c3ccc(F)cc3)c2-c2ccncc2)cc1 [Example B-1265],430
6,Cc1cccc(S(=O)(=O)NCCCc2[nH]nc(-c3ccc(F)cc3)c2-c2ccncc2)c1 [Example B-1266],< 100
7,O=S(=O)(NCCCc1[nH]nc(-c2ccc(F)cc2)c1-c1ccncc1)c1cccc(Cl)c1 [Example B-1267],< 100
8,O=S(=O)(NCCCc1[nH]nc(-c2ccc(F)cc2)c1-c1ccncc1)c1ccccc1Cl [Example B-1268],< 100
9,O=S(=O)(NCCCc1[nH]nc(-c2ccc(F)cc2)c1-c1ccncc1)c1cc(Cl)cc(Cl)c1 [Example B-1269],460
10,O=S(=O)(NCCCc1[nH]nc(-c2ccc(F)cc2)c1-c1ccncc1)c1ccc(Cl)c(Cl)c1 [Example B-1270],470
11,Cc1cccc(Cl)c1S(=O)(=O)NCCCc1[nH]nc(-c2ccc(F)cc2)c1-c1ccncc1 [Example B-1272],14
12,Cc1ccccc1S(=O)(=O)NCCCc1[nH]nc(-c2ccc(F)cc2)c1-c1ccncc1 [Example B-1274],< 100
13,COc1ccc(C)cc1S(=O)(=O)NCCCc1[nH]nc(-c2ccc(F)cc2)c1-c1ccncc1 [Example B-1275],< 100
14,CC1(C)[C@@H]2CC[C@@]1(S(=O)(=O)NCCCc1[nH]nc(-c3ccc(F)cc3)c1-c1ccncc1)C(=O)C2 [Example B-1277],< 100
15,O=S(=O)(NCCCc1[nH]nc(-c2ccc(F)cc2)c1-c1ccncc1)c1ccc(Cl)s1 [Example B-1278],120
16,COc1ccc(Br)cc1S(=O)(=O)NCCCc1[nH]nc(-c2ccc(F)cc2)c1-c1ccncc1 [Example B-1279],< 100
17,O=S(=O)(NCCCc1[nH]nc(-c2ccc(F)cc2)c1-c1ccncc1)c1ccc2ccccc2c1 [Example B-1280],39
18,O=S(=O)(NCCCc1[nH]nc(-c2ccc(F)cc2)c1-c1ccncc1)c1cccc2nonc12 [Example B-1282],< 100
19,O=C(NCc1ccc(S(=O)(=O)NCCCc2[nH]nc(-c3ccc(F)cc3)c2-c2ccncc2)s1)c1ccccc1 [Example B-1285],57
20,O=S(=O)(NCCCc1[nH]nc(-c2ccc(F)cc2)c1-c1ccncc1)c1ccc(-c2ccccc2)cc1 [Example B-1286],150
21,Cc1c(C)c(S(=O)(=O)NCCCc2[nH]nc(-c3ccc(F)cc3)c2-c2ccncc2)c(C)c2c1OC(C)(C)CC2 [Example B-1287],250
22,O=S(=O)(NCCCc1[nH]nc(-c2ccc(F)cc2)c1-c1ccncc1)c1ccc(-c2ccccn2)s1 [Example B-1288],150
23,O=S(=O)(NCCCc1[nH]nc(-c2ccc(F)cc2)c1-c1ccncc1)c1cc(S(=O)(=O)c2ccccc2)cs1 [Example B-1289],730
24,O=S(=O)(NCCCc1[nH]nc(-c2ccc(F)cc2)c1-c1ccncc1)c1ccc(-c2ccon2)s1 [Example B-1290],260
25,Cn1cnc(S(=O)(=O)NCCCc2[nH]nc(-c3ccc(F)cc3)c2-c2ccncc2)c1 [Example B-1291],97
26,CN(C)S(=O)(=O)NCCCc1[nH]nc(-c2ccc(F)cc2)c1-c1ccncc1 [Example B-1292],10

row,SMILES,IC50 [nM]
1,O=S(=O)(NCCCc1[nH]nc(-c2ccc(F)cc2)c1-c1ccncc1)c1ccc(S(=O)(=O)c2ccccc2)s1 [Example B-1293],310
2,CS(=O)(=O)c1ccccc1S(=O)(=O)NCCCc1[nH]nc(-c2ccc(F)cc2)c1-c1ccncc1 [Example B-1294],13
3,O=S(=O)(NCCCc1[nH]nc(-c2ccc(F)cc2)c1-c1ccncc1)c1cccc2cnccc12 [Example B-1295],79
4,Cc1ccc(S(C)(=O)=O)cc1S(=O)(=O)NCCCc1[nH]nc(-c2ccc(F)cc2)c1-c1ccncc1 [Example B-1296],38
5,NS(=O)(=O)c1ccc(CCNC(=O)NCCCc2[nH]nc(-c3ccc(F)cc3)c2-c2ccncc2)cc1 [Example B-1307],9
6,COCCNC(=O)NCCCc1[nH]nc(-c2ccc(F)cc2)c1-c1ccncc1 [Example B-1311],50
7,O=C(NCCCc1[nH]nc(-c2ccc(F)cc2)c1-c1ccncc1)NCCN1CCCCC1 [Example B-1313],35
8,CN1CCCC1CCNC(=O)NCCCc1[nH]nc(-c2ccc(F)cc2)c1-c1ccncc1 (stereo not shown) [Example B-1315],55
9,O=C(NCCCc1[nH]nc(-c2ccc(F)cc2)c1-c1ccncc1)NC1CCN(Cc2ccccc2)CC1 [Example B-1320],47
10,Cc1ccccc1C(=O)NCCCc1[nH]nc(-c2ccc(F)cc2)c1-c1ccncc1 [Example B-1321],470
11,O=C(NCCCc1[nH]nc(-c2ccc(F)cc2)c1-c1ccncc1)c1ccc(Cl)cc1 [Example B-1322],120
12,Cc1ccc(C(=O)NCCCc2[nH]nc(-c3ccc(F)cc3)c2-c2ccncc2)cc1 [Example B-1323],13
13,O=C(NCCCc1[nH]nc(-c2ccc(F)cc2)c1-c1ccncc1)c1cccc(C(F)(F)F)c1 [Example B-1324],160
14,O=C(NCCCc1[nH]nc(-c2ccc(F)cc2)c1-c1ccncc1)c1cc2ccccc2s1 [Example B-1325],270
15,CC(C)c1cc(C(C)C)c(C(=O)NCCCc2[nH]nc(-c3ccc(F)cc3)c2-c2ccncc2)c(C(C)C)c1 [Example B-1326],92
16,N#Cc1cccc(C(=O)NCCCc2[nH]nc(-c3ccc(F)cc3)c2-c2ccncc2)c1 [Example B-1328],32
17,O=C(NCCCc1[nH]nc(-c2ccc(F)cc2)c1-c1ccncc1)c1cccc2ccccc12 [Example B-1329],660
18,O=C(NCCCc1[nH]nc(-c2ccc(F)cc2)c1-c1ccncc1)c1ccc(F)c(F)c1 [Example B-1330],53
19,O=C(NCCCc1[nH]nc(-c2ccc(F)cc2)c1-c1ccncc1)c1cc(F)cc(F)c1 [Example B-1331],4
20,O=C(NCCCc1[nH]nc(-c2ccc(F)cc2)c1-c1ccncc1)c1c(F)ccc(F)c1F [Example B-1332],7
21,O=C(NCCCc1[nH]nc(-c2ccc(F)cc2)c1-c1ccncc1)c1cccc(Cl)c1Cl [Example B-1333],450
22,O=C(NCCCc1[nH]nc(-c2ccc(F)cc2)c1-c1ccncc1)c1cc(C(F)(F)F)ccc1F [Example B-1335],97
23,O=C(NCCCc1[nH]nc(-c2ccc(F)cc2)c1-c1ccncc1)c1c(F)cc(F)cc1F [Example B-1336],72
24,O=C(NCCCc1[nH]nc(-c2ccc(F)cc2)c1-c1ccncc1)c1ccc(C(F)(F)F)cc1F [Example B-1337],400
25,O=C(NCCCc1[nH]nc(-c2ccc(F)cc2)c1-c1ccncc1)c1c(F)cccc1C(F)(F)F [Example B-1338],180
26,O=C(NCCCc1[nH]nc(-c2ccc(F)cc2)c1-c1ccncc1)c1cccc(C(F)(F)F)c1F [Example B-1339],120
